Test results published in US8383651B2, “Compounds which selectively modulate the CB2 receptor” (Boehringer Ingelheim International GmbH, priority 2009, dated 2013).

molecular target: T1, human CB2R (Homo sapiens, UniProt P34972); experiment: CB2R mediated modulation of cAMP synthesis; type: cell-based; settings: not given
T1 construct: host or cells: CHO cells
Procedure: B. CB2R Mediated Modulation of Camp Synthesis:
Compounds of the invention are evaluated for their CB2 agonist or inverse agonistic activity in accordance with the following experimental method.
(§1) CHO cells expressing human CB2R (Euroscreen) are plated at a density of 5000 cells per well in 384 well plates and incubated overnight at 37° C. After removing the media, the cells are treated with test compounds diluted in stimulation buffer containing 1 mM IBMX, 0.25% BSA and 10 uM Forskolin. The assay is incubated for 30 minutes at 37° C. Cells are lysed and the cAMP concentration is measured using DiscoverX-XS cAMP kit, following the manufacturer's protocol. In this setting, agonists will decrease forskolin induced production of cAMP while inverse agonists will further increase forskolin induced production of cAMP. EC50 of agonists are calculated as follows. The maximal amount of cAMP produced by forskolin compared to the level of cAMP inhibited by 1 uM CP55940 is defined as 100%. The EC50 value of each test compound is determined as the concentration at which 50% of the forskolin-stimulated cAMP synthesis is inhibited. Data is analyzed using a four-parameter logistic model. (Model 205 of XLfit 4.0).

T1 sequence (P34972 whole entry): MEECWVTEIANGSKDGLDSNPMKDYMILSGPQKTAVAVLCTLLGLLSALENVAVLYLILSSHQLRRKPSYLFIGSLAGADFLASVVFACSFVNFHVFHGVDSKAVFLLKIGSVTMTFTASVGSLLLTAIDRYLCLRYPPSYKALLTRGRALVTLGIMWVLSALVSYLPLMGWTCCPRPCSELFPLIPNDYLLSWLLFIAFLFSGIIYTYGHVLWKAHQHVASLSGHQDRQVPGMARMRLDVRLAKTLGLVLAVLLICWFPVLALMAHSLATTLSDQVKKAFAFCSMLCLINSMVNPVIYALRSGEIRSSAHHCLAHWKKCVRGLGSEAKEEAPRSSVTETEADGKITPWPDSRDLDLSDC

Structure (SMILES)	EC50
Cc1ncc(C(C)(C)c2cc(NC(=O)C(C)(C)S(=O)(=O)C3CCOCC3)on2)o1	6.8 nM
CC(C)(c1cc(NC(=O)C(C)(C)S(=O)(=O)C2CCOCC2)on1)c1cnc(-c2ccccc2)o1	21 nM
CC(C)(C(=O)Nc1nc(-c2ncco2)n[nH]1)S(=O)(=O)C1CCOCC1	84 nM
Cc1cc(-c2nnc(NC(=O)C(C)(C)S(=O)(=O)CCC(C)C)[nH]2)no1	37 nM
Cc1cc(-c2nnc(NC(=O)C(C)(C)S(=O)(=O)C3CCCCC3)[nH]2)on1	55 nM
Cc1nnc(C(C)(C)c2cc(NC(=O)C(C)(C)S(=O)(=O)c3ccc(F)cc3)on2)o1	97 nM
Cc1nnc(C(C)(C)c2cc(NC(=O)C(C)(C)S(=O)(=O)CCCC(F)(F)F)on2)o1	18 nM
Cc1ncc(C(C)(C)c2cc(NC(=O)C(C)(C)S(=O)(=O)C3CCOCC3)on2)s1	3.4 nM
Cc1ncc(C(C)(C)c2cc(NC(=O)C(C)(C)S(=O)(=O)C3CCN(S(C)(=O)=O)CC3)on2)s1	28 nM
CCc1ncc(C(C)(C)c2cc(NC(=O)C(C)(C)S(=O)(=O)C3CCN(S(C)(=O)=O)CC3)on2)o1	25 nM
Cc1ncc(C2(c3cc(NC(=O)C(C)(C)S(=O)(=O)C4CCOCC4)on3)CCCC2)o1 [drawing 84]	4.6 nM

same assay, conditions: CHO cells expressing human CB2R; inhibition of forskolin-stimulated cAMP synthesis; read-out: CB2 EC50

Structure (SMILES)	EC50
Cc1cc(-c2n[nH]c(NC(=O)C(C)(C)S(=O)(=O)C3CCOCC3)n2)no1	268 nM
Cc1cc(-c2nnc(NC(=O)C(C)(C)S(=O)(=O)CCCC(F)(F)F)[nH]2)no1	271 nM
CC(C)(C(=O)Nc1nnc(-c2nccs2)[nH]1)S(=O)(=O)C1CCOCC1	303 nM
CC(C)CCS(=O)(=O)C(C)(C)C(=O)Nc1nnc(-c2ncco2)[nH]1	172 nM
Cc1cc(-c2n[nH]c(NC(=O)C(C)(C)S(=O)(=O)C3CCOCC3)n2)n(C)n1	487 nM
Cc1cc(-c2nnc(NC(=O)C(C)(C)S(=O)(=O)CCC3CCOCC3)[nH]2)on1	142 nM
Cc1cc(-c2nnc(NC(=O)C(C)(C)S(=O)(=O)CCC(C)C)[nH]2)on1	142 nM
Cc1nnc(C(C)(C)c2cc(NC(=O)C(C)(C)S(=O)(=O)C3CCN(S(C)(=O)=O)CC3)on2)o1	161 nM

molecular target: T2, human CB1R (Homo sapiens, UniProt P21554); experiment: CB1R mediated modulation of cAMP synthesis; type: cell-based; settings: CB1 EC50, CHO cells expressing human CB1R; inhibition of forskolin-stimulated cAMP synthesis
T2 construct: host or cells: CHO cells
T2 sequence (P21554 whole entry): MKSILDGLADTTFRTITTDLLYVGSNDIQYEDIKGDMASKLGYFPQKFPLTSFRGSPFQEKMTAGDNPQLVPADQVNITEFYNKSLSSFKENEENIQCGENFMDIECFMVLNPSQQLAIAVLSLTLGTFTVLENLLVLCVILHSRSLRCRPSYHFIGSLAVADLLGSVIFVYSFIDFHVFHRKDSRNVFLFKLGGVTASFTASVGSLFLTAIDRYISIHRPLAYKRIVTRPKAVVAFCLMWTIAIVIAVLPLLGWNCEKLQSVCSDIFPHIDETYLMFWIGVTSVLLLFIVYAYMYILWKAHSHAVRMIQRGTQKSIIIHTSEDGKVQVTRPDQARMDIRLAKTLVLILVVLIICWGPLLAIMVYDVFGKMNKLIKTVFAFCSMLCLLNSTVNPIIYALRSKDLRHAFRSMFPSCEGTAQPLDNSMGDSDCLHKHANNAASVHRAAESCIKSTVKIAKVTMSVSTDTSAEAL
Procedure: C. CB1R Mediated Modulation of cAMP Synthesis:
Compounds of the invention are evaluated for their CB1 agonist or inverse agonistic activity in accordance with the following experimental method.
as §1, with “CB1R” for “CB2R”

Structure (SMILES)	EC50
Cc1ncc(C(C)(C)c2cc(NC(=O)C(C)(C)S(=O)(=O)C3CCOCC3)on2)o1	> 200000 nM
CC(C)(c1cc(NC(=O)C(C)(C)S(=O)(=O)C2CCOCC2)on1)c1cnc(-c2ccccc2)o1	> 50000 nM
CC(C)(C(=O)Nc1nc(-c2ncco2)n[nH]1)S(=O)(=O)C1CCOCC1	> 50000 nM
Cc1cc(-c2nnc(NC(=O)C(C)(C)S(=O)(=O)CCC(C)C)[nH]2)no1	> 50000 nM
Cc1cc(-c2nnc(NC(=O)C(C)(C)S(=O)(=O)C3CCCCC3)[nH]2)on1	> 20000 nM
Cc1nnc(C(C)(C)c2cc(NC(=O)C(C)(C)S(=O)(=O)c3ccc(F)cc3)on2)o1	> 50000 nM
Cc1nnc(C(C)(C)c2cc(NC(=O)C(C)(C)S(=O)(=O)CCCC(F)(F)F)on2)o1	23100 nM
Cc1ncc(C(C)(C)c2cc(NC(=O)C(C)(C)S(=O)(=O)C3CCOCC3)on2)s1	> 50000 nM
Cc1ncc(C(C)(C)c2cc(NC(=O)C(C)(C)S(=O)(=O)C3CCN(S(C)(=O)=O)CC3)on2)s1	25100 nM
CCc1ncc(C(C)(C)c2cc(NC(=O)C(C)(C)S(=O)(=O)C3CCN(S(C)(=O)=O)CC3)on2)o1	26500 nM
Cc1ncc(C2(c3cc(NC(=O)C(C)(C)S(=O)(=O)C4CCOCC4)on3)CCCC2)o1 [drawing 84]	30000 nM
Cc1ncc(C2(c3cc(NC(=O)C(C)(C)S(=O)(=O)C4CCOCC4)on3)CCCC2)o1 [drawing 89]	30000 nM

same assay, conditions: CHO cells expressing human CB1R; inhibition of forskolin-stimulated cAMP synthesis; read-out: CB1 EC50

Structure (SMILES)	EC50
Cc1cc(-c2n[nH]c(NC(=O)C(C)(C)S(=O)(=O)C3CCOCC3)n2)no1	> 50000 nM
Cc1cc(-c2nnc(NC(=O)C(C)(C)S(=O)(=O)CCCC(F)(F)F)[nH]2)no1	> 50000 nM
CC(C)(C(=O)Nc1nnc(-c2nccs2)[nH]1)S(=O)(=O)C1CCOCC1	> 50000 nM
CC(C)CCS(=O)(=O)C(C)(C)C(=O)Nc1nnc(-c2ncco2)[nH]1	> 50000 nM
Cc1cc(-c2n[nH]c(NC(=O)C(C)(C)S(=O)(=O)C3CCOCC3)n2)n(C)n1	> 50000 nM
Cc1cc(-c2nnc(NC(=O)C(C)(C)S(=O)(=O)CCC3CCOCC3)[nH]2)on1	> 50000 nM
Cc1cc(-c2nnc(NC(=O)C(C)(C)S(=O)(=O)CCC(C)C)[nH]2)on1	> 50000 nM
Cc1nnc(C(C)(C)c2cc(NC(=O)C(C)(C)S(=O)(=O)C3CCN(S(C)(=O)=O)CC3)on2)o1	> 50000 nM
